# How the values were obtained:
# Format in all cases: in vivo
# [1] = test system: convulsant effects of electric shock; assay: Action against the convulsant effects of electric shock in the mouse; details: po, 0.5 h, 30 minutes before shock, 13 to 16 mA for 0.1 sec, read-out: Percentage protection against the convulsant effects of the electric shock; for responders at 500 mg/kg: 500 mg/kg p.o.
# Experimental: (§1) 2.3--Test on the action against the convulsant effects of electric shock and of strychnine in the mouse
# (§2) 30 minutes after administration of the compounds to groups of 10 animals, there is investigated the protection induced against:
# tonic crisis (extension of rear feet) provoked by supramaximal transcranial electric stimulation (13 to 16 mA for 0.1 sec).
# (§3) The results are expressed as a percentage of protection based on a control group which have only received the administration vehicle for the compounds.
# [2] = Acute toxicity for oral administration in mice; details: mouse, in vivo, suspension in 10% gum arabic
# Experimental: (§4) 1--ACUTE TOXICITY FOR ORAL ADMINISTRATION IN MICE
# (§5) The compounds are administered orally in increasing doses in suspension in a 10% gum arabic solution to groups of 5 .female. mice of mean weight 25 g. The 50% lethal doses (LD 50) are calculated by the method of KARBER and BEHRENS (Arch. Exp. Path. Pharmakol. 1935, 177, 379-388).
# (§6) The LD 50's found are summarised in Table IV below and indicate that the tested compounds have low toxicity.
# [3] = test system: convulsant effects of strychnine; assay: Action against the convulsant effects of strychnine in the mouse; details: 30 minutes before strychnine 1.5 mg/kg s.c.
# Experimental: as §1, §2
# convulsive crisis and death provoked by injection of strychnine at a limiting lethal dose of 1.5 mg/kg s.c.
# as §3
# [4] = test system: spontaneous motor activity; assay: Action on spontaneous motor activity in the mouse (BOISSIER); details: po, 0.5 h, 30 minutes after administration, vs control, read-out: Percentage variation in motor activity; for change in vivo at 500 mg/kg: 500 mg/kg p.o.
# Experimental: 2.1--Action on spontaneous motor activity in the mouse
# 30 minutes after administration per os of the test compounds, the mice (groups of 12 animals) are installed in individual cages in a BOISSIER activity measuring cupboard and move about before two photoelectric cells placed according to the rectangular coordinates. Meters register the movement during 20 minutes.
# mice = assay: Acute toxicity for oral administration in mice; details: suspension in 10% gum arabic
# Experimental: as §4, §5, §6
# [5] = test system: pentobarbital hypnosis time; assay: Action on the pentobarbital hypnosis time in the mouse; details: po, 0.5 h, 30 minutes before pentobarbital 50 mg/kg i.v., vs control, read-out: Percentage variation in pentobarbital hypnosis time
# Text: 2.2--Action on the pentobarbital hypnosis time in the mouse
# The hypnosis time of each mouse is counted in minutes from the moment when the animal may be placed without resistance on its back until that when it spontaneously gets back on its feet.
compound,measurement,setting,value
COc1cc(NC(=O)N2CC=CCC2)cc(OC)c1OC [compound 819],responders at 500 mg/kg,[1],40%
same,LD50,[2]; po,5000 mg/kg
same,Percentage protection against the convulsant effects of strychnine,[3]; 500 mg/kg p.o.,70%
same,change in vivo at 500 mg/kg,[4],-18%
COc1cc(NC(=O)CN2CCOCC2)cc(OC)c1OC [compound 833],LD50,mice,3000 mg/kg
COc1cc(NC(=O)N2CCOCC2)cc(OC)c1OC [compound 733],change in vivo at 400 mg/kg,[5]; 400 mg/kg p.o.,164%
same,responders at 400 mg/kg,[1]; 400 mg/kg p.o.,30%
same,LD50,[2]; po,4000 mg/kg
same,Percentage protection against the convulsant effects of strychnine,[3]; 400 mg/kg p.o.,100%
same,change in vivo at 400 mg/kg,[4]; 400 mg/kg p.o.,-74%
COc1cc(NC(=O)N(C)C)cc(OC)c1OC [compound 775],change in vivo at 170 mg/kg,[5]; 170 mg/kg p.o.,149%
same,LD50,[2]; po,1700 mg/kg
same,Percentage protection against the convulsant effects of strychnine,[3]; 170 mg/kg p.o.,33%
same,change in vivo at 170 mg/kg,[4]; 170 mg/kg p.o.,-40%
COc1cc(OC(=O)N2CCOCC2)cc(OC)c1OC [compound 754],change in vivo at 500 mg/kg,[5]; 500 mg/kg p.o.,178%
same,responders at 500 mg/kg,[1],90%
same,LD50,[2],5000 mg/kg
same,Percentage protection against the convulsant effects of strychnine,[3]; 500 mg/kg p.o.,100%
same,change in vivo at 500 mg/kg,[4],-41%
COc1cc(NC(=O)N(C)C2CCCC2)cc(OC)c1OC [compound 801],change in vivo at 250 mg/kg,[5]; 250 mg/kg p.o.,70%
same,responders at 250 mg/kg,[1]; 250 mg/kg p.o.,37%
same,LD50,[2]; po,2500 mg/kg
same,Percentage protection against the convulsant effects of strychnine,[3]; 250 mg/kg p.o.,100%
same,change in vivo at 250 mg/kg,[4]; 250 mg/kg p.o.,-29%
